In brackets after ≈: the same amount, converted by molar mass. Like-named read-outs stand apart in the source and are kept apart here.

For data set [1] the following is noted: ref (20), (22), (23), (25), DrugBank, (28), (31), (33); cited from earlier work.
Data set [2] can be described thus: Shake-flask drug solubility in absence of excipient (reference solubility). It counts as physicochemical. The procedure:
(§1) Compendial media (0.1 N HCl pH 1, phosphate buffer pH 6.8) were prepared according to the method described in European Pharmacopoeia ([35]). Fasted State Simulated Gastric Fluid (FaSSGF) and Fasted State Simulated Intestinal Fluid (FaSSIF-V2) were prepared as described by Jantratid et al.([36]).
(§2) Drug solubility studies in the absence and presence of excipient were performed in triplicate using the shake-flask method ([38]). Drug excess amount and 2% w/w or 5% w/w of each excipient were weighed and placed in centrifuge tubes. […] The physical mixtures were vortexed for 3 min. Then 5 mL of each medium was added in the tubes and the samples were placed in a shaking water bath (37°C, 200 strokes per minute (spm)). […] Filter adsorption studies were prior performed in triplicate for each drug. […] Filtered samples were further diluted (if needed) with the corresponding medium and analysed by HPLC (Supplementary Table I). Analytical HPLC procedures for drug quantification in the samples were modifications of already published methods. Drug quantification was made based on calibration curves. Standards were formulated from concentrated stock solution consisting of drug dissolved in MeOH. […] Drug solubility was calculated based on the sample drug concentration measured.

Details of data set [3]: method as in earlier work. The conditions noted are these: ref (20), (22), (24), (25), (27), (30), (31), (34); cited from earlier work.
Data set [4] can be described thus: Relative effect (RE) of superdisintegrant on drug apparent solubility (shake-flask, physical mixtures). The class given is physicochemical. The protocol: as §1, §2
Where [5] appears, read: aqueous buffer, thermodynamic from solid, Phosphate buffer pH 6.8 (compendial), 37°C, mean ± SD, read-out: Reference solubility.
[6] abbreviates: fassgf or other biorelevant, thermodynamic from solid, FaSSGF (biorelevant), 37°C, mean ± SD, read-out: Reference solubility.
Where [7] appears, read: simulated gastric fluid, thermodynamic from solid, 0.1 N HCl pH 1 (compendial), 37°C, mean ± SD, read-out: Reference solubility.
Setting [8] is: thermodynamic from solid, FaSSIF-V2 (biorelevant), 37°C, mean ± SD, read-out: Reference solubility.

Regarding `CC(=O)Nc1ccc(O)cc1` [PRC, Paracetamol], the “Ionization (type)” value in data set [1] is on record as “Neutral”. Moreover, the solubility at 24 h in data set [2] (setting [5]) was 15000 µg/mL (≈ 99200 µM); in data set [2] (setting [6]), 17000 µg/mL (≈ 112000 µM); in data set [2] (setting [7]) it was 16000 µg/mL (≈ 106000 µM); in data set [2] (setting [8]) it was 17000 µg/mL (≈ 112000 µM).

`CC(C)Cc1ccc(C(C)C(=O)O)cc1` (centres unmarked) [IBU, Ibuprofen]: in data set [1], the “Ionization (type)” value is recorded as “Weak acid”. For the same compound, the solubility at 24 h in data set [2] (setting [5]) is 5500 µg/mL (≈ 26700 µM); in data set [2] (setting [6]), 44 µg/mL (≈ 213 µM); in data set [2] (setting [7]), 43 µg/mL (≈ 208 µM); in data set [2] (setting [8]), 1500 µg/mL (≈ 7270 µM).

As for `OCCN(CCO)c1nc(N2CCCCC2)c2nc(N(CCO)CCO)nc(N3CCCCC3)c2n1` [DPL, Dipyridamole], in data set [1], the “Ionization (type)” value is reported as “Weak base”. The “Solubility (based on BCS classification)” value in data set [3] is “Low (30)”. Besides, the solubility at 24 h in data set [2] (setting [5]) is 5 µg/mL (≈ 9.91 µM); in data set [2] (setting [6]) it was 8600 µg/mL (≈ 17000 µM); in data set [2] (setting [7]), 13000 µg/mL (≈ 25800 µM); in data set [2] (setting [8]), 13 µg/mL (≈ 25.8 µM).

With `NC(=O)N1c2ccccc2C=Cc2ccccc21` [CBZ, Carbamazepine], in data set [4] (CCS(L), high level, phosphate buffer pH 6.8, 24 h), the “Relative effect (RE) of excipient on drug solubility” value (from here on “Relative effect (RE) of excipient”) is 37%. Besides, the “Ionization (type)” value in data set [1] is listed as “Neutral”. In addition, the “Solubility (based on BCS classification)” value in data set [3] is given as “Low (27)”. For the same compound, the solubility at 24 h is 227 µg/mL (≈ 961 µM) in data set [2] (setting [5]); 250 µg/mL (≈ 1060 µM) in data set [2] (compendial media (0.1 N HCl pH 1; phosphate buffer pH 6.8), compendial media, read-out: Solubility of pure drug); 368 µg/mL (≈ 1560 µM) in data set [2] (setting [6]); 265 µg/mL (≈ 1120 µM) in data set [2] (setting [7]); 280 µg/mL (≈ 1190 µM) in data set [2] (setting [8]). Further, the solubility at 0.5 h in data set [2] (compendial media (0.1 N HCl pH 1; phosphate buffer pH 6.8), 37 °C, thermodynamic from solid, compendial media, 0.5 h, read-out: Solubility of pure drug) came to 350 µg/mL (≈ 1480 µM).

For the compound `CCC(C)n1ncn(-c2ccc(N3CCN(c4ccc(OCC5COC(Cn6cncn6)(c6ccc(Cl)cc6Cl)O5)cc4)CC3)cc2)c1=O` (centres unmarked) [ITZ, Itraconazole], the “Relative effect (RE) of excipient” value is given as 31% in data set [4] (5% CCS(H), FaSSIF-V2, 24 h); −40% in data set [4] (CCS(H), low level, FaSSIF-V2, 24 h); 25% in data set [4] (Explotab CLV (SSG), high excipient level, FaSSIF-V2, 24 h); “approximately 50%” in data set [4] (Glycolys (SSG), both excipient levels, FaSSIF-V2, 24 h); −25% in data set [4] (Glycolys (SSG), high excipient level, 0.1 N HCl pH 1, 24 h); −23% in data set [4] (Glycolys (SSG), low excipient level, 0.1 N HCl pH 1, 24 h). Also, the “Relative effect (RE) of excipient” value in data set [4] (Glycolys LV (SSG), high excipient level, FaSSIF-V2, 24 h) was determined as 42%. In data set [1], the “Ionization (type)” value is given as “Weak base”. Also, the “Solubility (based on BCS classification)” value in data set [3] is on record as “Low (34)”. Further, the solubility at 24 h in data set [2] (setting [5]) is less than 0.015 µg/mL; in data set [2] (setting [6]) it was 1.2 µg/mL (≈ 1.7 µM); in data set [2] (setting [7]) it was 11 µg/mL (≈ 15.6 µM); in data set [2] (setting [8]), 0.05 µg/mL (≈ 0.0709 µM).

The values are drawn from article PMC7012964, “Biopharmaceutical Understanding of Excipient Variability on Drug Apparent Solubility Based on Drug Physicochemical Properties. Case Study: Superdisintegrants” (The AAPS Journal, 2020).
